Laboratory results from patent US8754052B2, “Treatment of nephrolithiasis and urolithiasis using 1,2,3,4,6-penta-O-galloyl-beta-D-glucose (PGG)” (Mayo Foundation for Medical Education and Research, priority 2008, dated 2014).

Legend:
[1] = system: hyaluronan; test: Hyaluronan expression by confocal microscopy and Western blot; assay type: cell-based, Canine
Method: A middle line was scraped in the confluent MDCK 1 cells grown on coverslips using a 200 μL plastic pipette tip. The MDCK I cells on coverslips were then exposed to various concentrations (1, 5 and 10 μM) of PGG for 15 minutes or 24 hours at 37° C. The coverslips were rinsed three times with PBS, and fixed using 3.7% formaldehyde in PBS for 15 min. Cells were then rinsed three times with PBS and incubated with 1% goat serum for 1 h to block nonspecific binding sites. The goat serum was aspirated and the cells were incubated for 1 hour in a humidified chamber at 37° C. with biotinylated HABP. The cells were then washed with PBS (10 min×3) and then incubated 1 h with an avidin-conjugated Texas red (Molecular Probes, Eugene, Oreg.) in a humidified chamber at 37° C. Cells were again washed with PBS (10 min×3), and the coverslips were mounted onto glass slides using Slow-Fade (Molecular Probes, Eugene, Oreg.). The XZ section was scanned using a LSM 510 confocal microscope (Carl Zeiss, Oberkochen, Germany) equipped with an Axiovert 100M microscope and a c-Apochromat 63/1.2 numerical aperture water-immersion lens. Texas red was excited at 568-nm of an argon-krypton laser and the Emission for Texas red was collected at >585 nm.
For Western blotting, MDCK-I cells with or without scrape-wounding 24 hours earlier were harvested and washed with cold PBS; PGG (1, 5, 10 μM) was added to the medium 15 min or 24 hours prior to harvest. Cells were incubated in lysis buffer (50 mM Tris-HCl (pH 7.4), 150 mM NaCl, 1% Triton X-100, 0.1% SDS and 1 mM EDTA) supplemented with protease inhibitors ([…] and 1 mM of 4-(2-aminoethyl) benzenesulfonyl fluoride) and phosphatase inhibitors (1 mM NaF and 1 mM Na3VO4) for 20 min on ice. Lysates were centrifuged at 14,000 g for 20 min at 4° C. Lysates containing […] of protein were fractionated by SDS-PAGE and electrotransferred to a Hybond ECL transfer membrane (Amersham Pharmacia, Arlington Heights, Ill.). The blocked membranes were then incubated with primary antibodies (1:200 dilution) of HABP. […]

[2] = system: MDCK I cells; test: Wound healing assay (migration after scrape wounding); assay type: cell-based, Canine; details: Canis lupus familiaris, 24 h, FIG. 3, read-out: inhibiting wound healing (migration after scrape wounding)
Method: (§1) Renal epithelial cells were of the Madin-Darby Canine kidney (MDCK) line, type I, derived from the distal nephron. Cells were grown in DMEM containing 25 mmol/L glucose at 37° C. in a humidified atmosphere containing […] CO2. To prepare high-density, quiescent cultures at 1×10^6 cells/35-mm plastic plate (9.62 cm^2; Nunc, Naperville, Ill., USA) were performed in DMEM containing 10% fetal bovine serum. Two days later when the cells were confluent, the established monolayer was used in the examples that follow.
MDCK I cells were seeded in a 35-mm plastic plate to confluent status overnight and incubated with serum-free medium for 6 h. A plastic pipette tip (200 μl size) was used to scrape a line between the MDCK1 cells that was approximately 2 to 3 mm wide across the entire culture dish. The medium was replaced by serum-free medium including various concentrations (1, 5 and 10 μM) of PGG. After incubation at 37° C. for 24 h, each plate was photographed (100×) and quantified.

[3] = system: MDCK I cells; test: Cytotoxicity assay (MTT colorimetric assay); assay type: cell-based, Canine
Method: as §1
The effect of PGG on cytotoxicity against MDCK 1 cells was evaluated using a MTT (3-(4,5-dimethylthiazol-2-yl)-2,5-diphenyltetrazolium bromide) colorimetric assay. PGG was dissolved with dimethylsulfoxide (DMSO). The cells were seeded onto 96-well microplates at a density of 1×10^4 cells per well in 100 μL of DMEM containing 10% fetal bovine serum. […] Cells were incubated at 37° C. for 1 h and the optical density was measured using a microplate reader (Molecular Devices Co.) set at 570 nm. Cell viability was calculated as the percentage of viable cells in the PGG treated group versus those in the untreated control group using the following equation: cell viability (%)=[OD (PGG)−OD (Blank)/OD (Control)−OD (Blank)]×100.

[4] = system: MDCK I cells; test: [14C]COM crystal binding assay; assay type: cell-based, Canine
Method: Calcium oxalate monohydrate (COM) crystals were prepared from supersaturated solutions. To prepare radioactive COM crystals, [^14C]oxalic acid (30-60 mCi/mmol; ICN Biomedicals, Irivine, Calif., USA) was added to a sodium oxalate solution, producing a specific activity of 10^5 cpm/mL, and sufficient calcium chloride was then added to form a supersaturated solution. […] Dulbecco-Vogt modified Eagle's essential medium (DMEM; GIBCO, Life Technologies Inc., NY), antibiotic-antimycotics were purchased from GIBCO (Grand island, NY). Fetal bovine serum (FBS) was from JRH (Lenexa, Kans.). HEPES (N-[2-hydroxyethyl]piperazine-N′-[2-ethanesulfonic acid]), sodium bicarbonate, MTT (3-(4,5-dimethylthiazol-2-yl)-2,5-diphenyltetrazolium bromide, BSA (bovine serum albumin were obtained from Sigma Chemical Co. (St. Louis, Mo.).
as §1
MDCK I cells were treated with various concentrations (1, 5 and 10 μM) of PGG for 15 min or 24 h with and without wound damage and washed with phosphate-buffered saline (PBS, pH 7.4). Then [^14C] calcium oxalate monohydrate (COM) crystals were added to MDCK 1 cells, until a final concentration of 200 μg/mL (41.6 μg/cm^2 of cells) was achieved. The culture dishes were gently agitated for 5 seconds to uniformly distribute the crystals so that they settled to the surface of the cell monolayer under the force of gravity. After 2 min, the buffer was aspirated and the cells were washed 3 times with PBS. The cells and adherent crystals were then liquefied in 1 mL of 10% NaOH for 1 h and transferred to a scintillation vial containing 4.5 mL of Ecoscient (National Diagnostics, E. Palmetto, Fla., USA). The amount of radioactivity was measured, as described previously (See Riese, R. J. et al. Am J. Physiol (1992) 262: F177-84). Similarly, to precoat the [^14C]COM crystals with PGG, 0.4 mg [^14C]COM crystals were placed in a 5-mL tube containing 2 mL of a solution containing various concentrations (1, 5 and 10 μM) of PGG diluted in PBS. The crystals were incubated under end-over-end rotation for 15 min at room temperature, pelleted by centrifugation at 2,000 r.p.m. for 5 min, washed with PBS and then resuspended in 2 mL PBS. Two minutes later, the crystal binding activity was measured as described above.

[5] = Toxicology study in mice orally fed with PGG; assay type: in vivo, ICR mice; details: oral 10, 20 and 40 mg/kg
Method: To examine the optimal dose for animal study, a toxicology study was performed in mice orally fed with PGG (10, 20, and 40 mg/kg). Each group consisted of five ICR mice.

[6] = system: hyperoxaluric wild type rats; test: Ethylene glycol/ammonium chloride induced nephrolithiasis in hyperoxaluric rats; assay type: in vivo, Harlan Sprague Dawley Rats; details: for Serum BUN (mean ± SD) / Serum Calcium (mean ± SD) / Serum Creatinine (mean ± SD) / Serum Phosphate (mean ± SD) / Serum Uric acid (mean ± SD): rat serum; for Urine Calcium / Urine Mean Vol ± SD / Urine Mean pH ± SD: rat urine; for Survival (%): rats
Method: Rats were administered PGG, with and without ethylene glycol given to render the rats hyperoxaluric. The effect of PGG on renal crystal deposition was assessed, to confirm the ability of PGG to prevent crystal deposition. Urine of animals was collected and extensively studied to quantitate biochemical and functional changes, and determine the mechanism of the apparent salutary effects, in several studies outlined in Table 1. Functional effects of treated rat urine on crystal nucleation, growth, aggregation and cell interaction was also tested, and compared to urine from control animals.
Six rats per group were treated (see Table 1 below). Harlan Sprague Dawley Rats (300 g) received 0.8% ethylene glycol and 1% ammonium chloride mixed with the drinking water to induce nephrolithiasis, PGG in 2 different doses (4 mg/kg and 20 mg/kg), or both for a full 4 weeks. The doses of PGG covered the range deemed effective in mouse experiments on angiogenesis over a 2-log range factored for relative body size. PGG was administered to all rats via […]. Urine was collected for chemistries and crystalluria quantification at weekly intervals, with full urinary inhibition studies at 3 weeks, and histologic evaluation after week 3. Kidneys were examined quantitatively for the presence of cortical and medullary crystals, as well as interstitial fibrosis, by a blinded observer. Crystal deposition within cortex and medulla were also quantified under polarizing microscopy using Metamorph software.
Twenty four-hour rat urine samples were collected in a metabolic cage with sodium azide as a preservative. Urine was centrifuged, the pellet resuspended, and crystal size and quantity assessed in a hemocytometer.
Spot urine or 24-hr urine samples from individual rats under study were assayed before and after hyperoxaluric treatment. Spot urine samples were collected directly into Eppendorf tubes, centrifuged at 5,000×g for 5 min to dispose of cell debris, and stored at −80° C. until use. Urinary concentrations of oxalate, calcium and other determinants of SS were measured. SS was calculated using the EQUIL2 program.
Urine chemistry and enzymes were evaluated to measure urine pH, […] clearance, the presence and concentration of oxalate, calcium, citrate, and 8-Hydroxy-2′-deoxyguanosine (8-OH-dG). 8-OH-dG has been regarded as a potential marker of oxidative DNA damage induced by ROS. Urinary 8-OHdG was measured using a commercially available competitive 8-OHdG enzyme-linked immunosorbent assay kit. The number of oxalate crystal deposits in the kidneys was measured using a hematoxylin and eosin stain. Reverse transcriptase PCR (RT-PCR) was used to detect and quantify superoxide dismutase (SOD) mRNA and osteopontin mRNA. Immunohistochemical staining techniques were used to measure SOD and osteopontin protein expression […]. Blood chemistry was also studied to measure levels of creatinine, uric acid, phosphate, blood urea nitrogen (BUN), and malondialdehyde (MDA) in the subjects.

## O=C(OC[C@H]1O[C@@H](OC(=O)c2cc(O)c(O)c(O)c2)[C@H](OC(=O)c2cc(O)c(O)c(O)c2)[C@@H](OC(=O)c2cc(O)c(O)c(O)c2)[C@@H]1OC(=O)c1cc(O)c(O)c(O)c1)c1cc(O)c(O)c(O)c1 [PGG, 1,2,3,4,6-penta-O-galloyl-beta-D-glucose]
[1]; 24 hours exposure, 1-10 μM, FIG. 6B
  total cell hyaluronan expression by wounded monolayers (Western blot), effect versus 15 min: slightly more pronounced
[1]; PGG treatment 15 minutes or 24 hours, concentration dependent, FIG. 6A
  hyaluronan expression on the surface of wounded MDCK 1 cells (confocal microscopy): attenuated
[1]; within 15 minutes of PGG addition, FIG. 6B
  total cell hyaluronan expression by wounded monolayers (Western blot): decreased
[2]; 1 μM PGG
  inhibition at 1 µM: 2%
[2]; 5 μM PGG
  inhibition at 5 µM: 26%
[2]; 10 μM PGG
  inhibition at 10 µM: 49%
[3]; concentrations up to 25 uM, 24 h, FIG. 1
  cytotoxicity against MDCK I cells: did not exert any significant cytotoxicity
[3]; except at high concentrations
  cytotoxicity on MDCK I cells (FIG. 1 legend): lack of cytotoxicity
[4]; PGG added to the buffer, concentration-dependent, FIG. 4A
  COM crystal adhesion to MDCK I cells: significantly reduced
[4]; after 15 min or 24 h incubation time, FIGS. 2A and 2B
  COM adhesion to scrape-wounded MDCK I cells: significantly inhibited
[4]; cells pretreated 15 minutes or 24 hours, FIG. 5
  crystal binding by PGG-pretreated MDCK I cells: bound less crystals
[4]; crystals precoated with PGG 15 min, concentration-dependent, FIG. 4B
  binding of PGG-precoated COM crystals to cells: decrease their subsequent binding to cells
[5]; FIG. 7
  body weight of mice, PGG versus control groups: no significant difference
[5]; FIG. 9
  hematological values: did not affect
[5]; FIG. 10
  GOT and GPT levels: did not affect
[5]; FIGS. 8 and 11
  shapes and weights of organs (spleen, liver, kidney, lung): did not affect
[6]; 20 mg/kg PGG
  survival rate compared with normal group: mirrored that of those in the normal group
[6]; PGG 4 mg/kg + EG
  Serum BUN (mean ± SD): 24.6 ± 3.9 mg/dL
  Serum Calcium (mean ± SD): 10.9 ± 1.1 mg/dL
  Serum Creatinine (mean ± SD): 0.6 ± 0.5 mg/dL
  Serum Phosphate (mean ± SD): 10.7 ± 1.4 mg/dL
  Serum Uric acid (mean ± SD): 2.9 ± 3.2 mg/dL
  Urine Calcium: 2.95 ± 0.31
  Urine Mean Vol ± SD: 33.0 ± 3.74 mL
  Urine Mean pH ± SD: 6.7 ± 1.2
[6]; PGG 4 mg/kg
  Survival (%): 83%
[6]; PGG 20 mg/kg + EG
  Serum BUN (mean ± SD): 23.3 ± 3.7 mg/dL
  Serum Calcium (mean ± SD): 10.5 ± 0.3 mg/dL
  Serum Creatinine (mean ± SD): 0.6 ± 0.1 mg/dL
  Serum Phosphate (mean ± SD): 9.4 ± 0.8 mg/dL
  Serum Uric acid (mean ± SD): 1.6 ± 1.0 mg/dL
  Urine Calcium: 3.52 ± 0.31
  Urine Mean Vol ± SD: 34.7 ± 3.59 mL
  Urine Mean pH ± SD: 7.1 ± 0.8
[6]; PGG 20 mg/kg
  Survival (%): 100%
[6]; upon administration of PGG, FIG. 12 and Table 4
  survival time of the rats: increased
[6]; urine at 21 days, FIG. 14
  number of stones (calcium oxalate in urine) versus stone group: considerably less
